Data: patent US10005767B2, “Compositions and methods for inhibition of the JAK pathway” (Rigel Pharmaceuticals, Inc., priority 2009, dated 2018)

What follows are compounds tested on human primary T-cells, IL-2 stimulated proliferation (JAK-1 and JAK-3 dependent; reported as JAK3 activity) (assay: Human primary T-cell proliferation stimulated by IL-2 (Example 3)). Conditions: Homo sapiens, T-cell, tested under conditions described in Example 3 (IL-2 stimulated human primary T-cell proliferation); read-out: ability to inhibit JAK3 activity, IC50 range (Table V).
Format: cell-based
Method in brief: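 Peripheral-blood human T-cells pre-activated via TCR/CD28, IL-2-starved overnight, then cultured 72 h at 37 °C with compound in Yssel's medium containing IL-2 (80 U/mL in cell suspension). Proliferation read as viable-cell ATP by CellTiter-Glo luminescence; reduction versus control taken as JAK pathway inhibition.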
Cc1cnc(Nc2ccc(F)c(S(C)(=O)=O)c2)nc1Nc1ccc2oc(=O)[nH]c2c1 [Compound I-242, 5-(2-(4-fluoro-3-(methylsulfonyl)phenylamino)-5-methylpyrimidin-4-ylamino)benzo[d]oxazol-2(3H)-one] showed an IC50 of under 500 nM. For Cc1cnc(Nc2cccc(S(N)(=O)=O)c2)nc1Nc1cc(C)c2oc(=O)[nH]c2c1 [Compound I-243, 3-(5-methyl-4-(7-methyl-2-oxo-2,3-dihydrobenzo[d]oxazol-5-ylamino)pyrimidin-2-ylamino)benzenesulfonamide], the IC50 was under 500 nM. Cc1cnc(Nc2cccc(S(C)(=O)=O)c2)nc1Nc1cc(C)c2oc(=O)[nH]c2c1 [Compound I-244, 7-methyl-5-(5-methyl-2-(3-(methylsulfonyl)phenylamino)pyrimidin-4-ylamino)benzo[d]oxazol-2(3H)-one] showed an IC50 of under 500 nM. For Cc1cnc(Nc2ccc(F)c(S(C)(=O)=O)c2)nc1Nc1cc(C)c2oc(=O)[nH]c2c1 [Compound I-245, 5-(2-(4-fluoro-3-(methylsulfonyl)phenylamino)-5-methylpyrimidin-4-ylamino)-7-methylbenzo[d]oxazol-2(3H)-one], the IC50 was under 500 nM. Work on Cc1cnc(Nc2cccc(C(=O)N3CCCC3)c2)nc1Nc1ccc2oc(=O)[nH]c2c1 [Compound I-246, 5-(5-methyl-2-(3-(pyrrolidine-1-carbonyl)phenylamino)pyrimidin-4-ylamino)benzo[d]oxazol-2(3H)-one] yielded an IC50 of under 500 nM. Cc1cnc(Nc2ccc(C(=O)N3CCCC3)cc2)nc1Nc1ccc2oc(=O)[nH]c2c1 [Compound I-247, 5-(5-methyl-2-(4-(pyrrolidine-1-carbonyl)phenylamino)pyrimidin-4-ylamino)benzo[d]oxazol-2(3H)-one] gave an IC50 of under 500 nM. Cc1cnc(Nc2cccc(S(N)(=O)=O)c2)nc1Nc1cc(F)c2oc(=O)[nH]c2c1 [Compound I-248, 3-(4-(7-fluoro-2-oxo-2,3-dihydrobenzo[d]oxazol-5-ylamino)-5-methylpyrimidin-2-ylamino)benzenesulfonamide] gave an IC50 of under 500 nM. Cc1cnc(Nc2cccc(S(C)(=O)=O)c2)nc1Nc1cc(F)c2oc(=O)[nH]c2c1 [Compound I-249, 7-fluoro-5-(5-methyl-2-(3-(methylsulfonyl)phenylamino)pyrimidin-4-ylamino)benzo[d]oxazol-2(3H)-one] showed an IC50 of under 500 nM. Cc1cnc(Nc2ccc(F)c(S(C)(=O)=O)c2)nc1Nc1cc(F)c2oc(=O)[nH]c2c1 [Compound I-250, 7-fluoro-5-(2-(4-fluoro-3-(methylsulfonyl)phenylamino)-5-methylpyrimidin-4-ylamino)benzo[d]oxazol-2(3H)-one] showed an IC50 of under 500 nM. Compound COc1cc(Nc2ncc(C)c(Nc3cc(F)c4oc(=O)[nH]c4c3)n2)cc(C(F)(F)F)c1 [Compound I-251, 7-fluoro-5-(2-(3-methoxy-5-(trifluoromethyl)phenylamino)-5-methylpyrimidin-4-ylamino)benzo[d]oxazol-2(3H)-one] has an IC50 of under 500 nM. With COc1cc(Nc2ncc(C)c(Nc3ccc4oc(=O)[nH]c4c3)n2)cc(C(=O)N(C)C)c1 [Compound I-252, 3-methoxy-N,N-dimethyl-5-(5-methyl-4-(2-oxo-2,3-dihydrobenzo[d]oxazol-5-ylamino)pyrimidin-2-ylamino)benzamide] the IC50 was under 500 nM. COc1cc(Nc2ncc(C)c(Nc3ccc4oc(=O)[nH]c4c3)n2)cc(C(=O)N2CCCC2)c1 [Compound I-253, 5-(2-(3-methoxy-5-(pyrrolidine-1-carbonyl)phenylamino)-5-methylpyrimidin-4-ylamino)benzo[d]oxazol-2(3H)-one] was tested, and the IC50 was over 10000 nM. Work on COc1cc(Nc2ncc(C)c(Nc3ccc4oc(=O)[nH]c4c3)n2)cc(C(=O)N2CCOCC2)c1 [Compound I-254, 5-(2-(3-methoxy-5-(morpholine-4-carbonyl)phenylamino)-5-methylpyrimidin-4-ylamino)benzo[d]oxazol-2(3H)-one] yielded an IC50 of under 500 nM. In the case of COc1cc(Nc2ncc(C)c(Nc3ccc4oc(=O)[nH]c4c3)n2)cc(C(=O)N2CCN(C)CC2)c1 [Compound I-255, 5-(2-(3-methoxy-5-(4-methylpiperazine-1-carbonyl)phenylamino)-5-methylpyrimidin-4-ylamino)benzo[d]oxazol-2(3H)-one], the IC50 is reported as under 500 nM. Cc1cnc(Nc2cccc(C(=O)N3CCOCC3)c2)nc1Nc1ccc2oc(=O)[nH]c2c1 [Compound I-256, 5-(5-methyl-2-(3-(morpholine-4-carbonyl)phenylamino)pyrimidin-4-ylamino)benzo[d]oxazol-2(3H)-one] showed an IC50 of under 500 nM. Cc1cnc(Nc2ccc(C(=O)N3CCOCC3)cc2)nc1Nc1ccc2oc(=O)[nH]c2c1 [Compound I-257, 5-(5-methyl-2-(4-(morpholine-4-carbonyl)phenylamino)pyrimidin-4-ylamino)benzo[d]oxazol-2(3H)-one] was tested, and the IC50 was under 500 nM. In the case of COc1ccc(Nc2ncc(C)c(Nc3ccc4oc(=O)[nH]c4c3)n2)cc1C [Compound I-258, 5-(2-(4-methoxy-3-methylphenylamino)-5-methylpyrimidin-4-ylamino)benzo[d]oxazol-2(3H)-one], the IC50 is reported as under 500 nM. Compound COc1cc(C)cc(Nc2ncc(C)c(Nc3ccc4oc(=O)[nH]c4c3)n2)c1 [Compound I-259, 5-(2-(3-methoxy-5-methylphenylamino)-5-methylpyrimidin-4-ylamino)benzo[d]oxazol-2(3H)-one] has an IC50 of under 500 nM. COc1ccc(Nc2ncc(C)c(Nc3ccc4oc(=O)[nH]c4c3)n2)cc1C(=O)N(C)C [Compound I-260, 2-methoxy-N,N-dimethyl-5-(5-methyl-4-(2-oxo-2,3-dihydrobenzo[d]oxazol-5-ylamino)pyrimidin-2-ylamino)benzamide] gave an IC50 of under 500 nM. Compound COc1ccc(Nc2ncc(C)c(Nc3ccc4oc(=O)[nH]c4c3)n2)cc1C(=O)N1CCCC1 [Compound I-261, 5-(2-(4-methoxy-3-(pyrrolidine-1-carbonyl)phenylamino)-5-methylpyrimidin-4-ylamino)benzo[d]oxazol-2(3H)-one] has an IC50 of under 500 nM. COc1ccc(Nc2ncc(C)c(Nc3ccc4oc(=O)[nH]c4c3)n2)cc1C(=O)N1CCOCC1 [Compound I-262, 5-(2-(4-methoxy-3-(morpholine-4-carbonyl)phenylamino)-5-methylpyrimidin-4-ylamino)benzo[d]oxazol-2(3H)-one] was tested, and the IC50 was under 500 nM. With COc1ccc(Nc2ncc(C)c(Nc3ccc4oc(=O)[nH]c4c3)n2)cc1C(=O)N1CCN(C)CC1 [Compound I-263, 5-(2-(4-methoxy-3-(4-methylpiperazine-1-carbonyl)phenylamino)-5-methylpyrimidin-4-ylamino)benzo[d]oxazol-2(3H)-one] the IC50 was under 500 nM. [2H]C([2H])([2H])Oc1ccc(Nc2ncc(C)c(Nc3ccc4oc(=O)[nH]c4c3)n2)cc1C [Compound I-264, 5-(2-(3-methyl-4-trideuteromethoxyphenylamino)-5-methylpyrimidin-4-ylamino)benzo[d]oxazol-2(3H)-one] was tested, and the IC50 was under 500 nM. COc1c(C)cc(Nc2ncc(C)c(Nc3ccc4oc(=O)[nH]c4c3)n2)cc1Cl [Compound I-265, 5-(2-(3-chloro-4-methoxy-5-methylphenylamino)-5-methylpyrimidin-4-ylamino)benzo[d]oxazol-2(3H)-one] was tested, and the IC50 was under 500 nM. [2H]C([2H])([2H])Oc1cc(C)cc(Nc2ncc(C)c(Nc3ccc4oc(=O)[nH]c4c3)n2)c1 [Compound I-266, 5-(2-(3-methyl-5-trideuteromethoxyphenylamino)-5-methylpyrimidin-4-ylamino)benzo[d]oxazol-2(3H)-one] showed an IC50 of under 500 nM.
